# US20120148682A1
# What was measured:
# [1] = tested on: Phytophthora infestans; type: in vivo; details: 50 ppm hydrazone with 50 μM CuCl2.2H2O, applied 24 h before inoculation, tomato plants, 7 days after inoculation
# [2] = tested on: Leptosphaeria nodorum (LEPTNO); test: In vitro fungitoxicity (growth inhibition) in copper-minus and copper-plus medium; type: cell-based
# Procedure: Trace elements (minus CuSO4), and vitamins described by Coursen and […] were added from concentrated stock solutions and the entire medium was sterilized by filtration. […] […] was grown on potato dextrose agar in 9 cm diameter petri dishes for 7 days. Sterile deionized water (20 mL) was added to a culture plate and spores suspended by scraping the surface gently with a sterile plastic loop. The resulting suspension was filtered through a double layer of sterile cheesecloth. Filtered spore suspension (5 mL) was centrifuged in a bench centrifuge at 2000 rpm for 2 min. […] Microtiter plates were inoculated with 100 μL of this spore suspension and the plates incubated at 25° C. for 72 h before assessing fungal growth by measuring light scattering in a NepheloStar plate reader. Growth inhibition was determined by comparing growth in the presence of test compound with growth in control wells lacking test compound. Results for growth inhibition by test compounds in copper-plus medium (“% Inhn. Plus Copper Observed”) were compared with predicted values (“% Inhn. Plus Copper Predicted”) that were calculated using the formula set forth by S. R. […] Minus Copper Observed”) and the inhibition attributed to copper chloride alone, as determined by comparing growth in copper-minus and copper-plus media without any test compound across experiments. Results illustrate that hydrazones and copper produce a synergistic fungitoxic effect towards […].
# [3] = tested on: Ustilago maydis; test: In vitro fungitoxicity in copper-minus and copper-plus medium; type: cell-based; details: CuCl2 10 μM, without test compound
# Procedure: Test compounds were dissolved in dimethylsulfoxide (DMSO) at 200 μg/mL and 1 μL aliquots were added to two wells of flat-bottomed 96-well microtiter plates. […] Control wells, included for each medium, received 1 uL DMSO and 100 μL of medium. Ustilago maydis was grown in 50 mL potato dextrose broth with shaking at 25° C. for 24 h. A 10 mL aliquot of the culture was centrifuged at 2000 rpm for 2 min, resuspended in 10 mL of sterile Chelex 100-treated water, and centrifuged again. […] Microtiter plate wells containing test compound of DMSO (control) as described above were inoculated with 100 μL of this spore suspension and the plates incubated at 25° C. for 48 h before assessing fungal growth by measuring light scattering in a NepheloStar plate reader. Growth inhibition was determined by comparing growth in the presence of test compound with growth in control wells lacking test compound. […] Plus Copper Observed”) were compared with predicted results (“% Inhn. Plus Copper Predicted”) that were calculated using the formula set forth by S. R. […] Minus Copper Observed”) and the inhibition attributed to copper chloride alone, as determined by comparing growth in copper-minus and copper-plus media without any test compound. Results illustrate that hydrazones and copper produce a synergistic fungitoxic effect towards Ustilago maydis.
# [4] = tested on: Septoria tritici isolate USA-184; test: as above; type: cell-based; details: CuCl2 1 μM, without test compound
# Procedure: Test compounds were dissolved in dimethylsulfoxide (DMSO) at 10 μg/mL and 1 μL aliquots were added to two wells of flat-bottomed 96-well microtiter plates. […] Control wells, included for each medium, received 1 uL DMSO and 100 μL of medium. Septoria tritici isolate USA-184 was grown on potato dextrose agar at 18° C. under black lights for 3 days. A loopful of spores was transferred from the culture to a 15 mL tube containing 5 mL of sterile Chelex-treated water. The spores were centrifuged at 2000 rpm for 2 min, resuspended in 10 mL water, and centrifuged again. […] Microtiter plate wells containing test compound of DMSO (control) as described above were inoculated with 100 μL of this spore suspension and the plates incubated at 25° C. for 90 h before assessing fungal growth by measuring light scattering in a NepheloStar plate reader. Growth inhibition was determined by comparing growth in the presence of test compound with growth in control wells lacking test compound. […] Plus Copper Observed”) were compared with predicted results (“% Inhn. Plus Copper Predicted”) that were calculated using the formula set forth by S. R. […] Minus Copper Observed”) and the inhibition attributed to copper chloride alone, as determined by comparing growth in copper-minus and copper-plus media without any test compound. […]
# [5] = tested on: Phytophthora capsici; test: In vitro fungitoxicity in copper-minus AS and copper-plus AS medium; type: cell-based; details: CuCl2 50 uM, without test compound, across experiments
# Procedure: Plates were inoculated with 7-mm plugs from a 1-week old culture, incubated at 25° C. in the dark for 3 days, and then placed under fluorescent lights for 4 days to induce sporulation. Zoospore release from sporangia was induced by adding 15 mL of sterile deionized water (which had been treated with Chelex 100 resin using 0.5 g resin per liter of water by stirring at room temperature for 1 h) to each plate, and incubating for 10 min at 25° C. followed by 20 min at 4° C. The plates were returned to 25° C. for 10 min and the aqueous suspension of released zoospores was recovered. The zoospore suspension was adjusted to 5×10^4 spores/mL by dilution into Chelex 100-treated water. Microtiter plates were inoculated with 100 μL of spore suspension and incubated at 25° C. for 48 h before assessing fungal growth by measuring light scattering in a NepheloStar plate reader. Growth inhibition was determined by comparing growth in the presence of test compound with growth in control wells lacking test compound. Results for growth inhibition by test compounds in copper-plus AS medium (“% Inhn. Plus Copper Observed”) were compared with predicted values (“% Inhn. Plus Copper Predicted”) that were calculated using the formula set forth by S. R. […]
# [6] = tested on: Staphylococcus aureus, Escherichia coli, Aspergillus niger and A. flavus; details: Proceedings of the National Academy of Sciences, India 1991; cited from earlier work
smiles,measurement,setting,value
O=C(N/N=C/c1cccc(C(F)(F)F)c1O)c1ccc(C(F)(F)F)cc1O [Compound 42],melting point,,248 to 253 °C
same,TLB % Control,[1],100.0%
same,LEPTNO % Inhn. Plus Copper Observed,"[2]; 0.05 μg/mL compound, copper-plus medium (CuCl2, 10 μM), 72 h",98.4%
same,inhibition of growth at 0.05 µg/mL,"[2]; Parastagonospora nodorum, 0.05 μg/mL compound, copper-minus medium, 72 h, read-out: LEPTNO % Inhn. Minus Copper Observed",8.8%
"[Cl][Cu][Cl] [CuCl2, copper chloride]",% Inhn. copper chloride alone,[3],11.9%
same,% Inhibition copper chloride alone,[4],0%
same,% Inhibition copper chloride alone,[4]; listed as copper chloride,no effect on growth
same,% Inhn copper chloride alone,[5],4.5 ± 7.9%
same,LEPTNO % Inhn. copper chloride alone,"[2]; CuCl2 10 μM, without test compound, across experiments",7.1 ± 6.0%
O=C(NN=Cc1ccccc1O)c1ccccc1O [o-hydroxybenzaldehyde-N-salicyloylhydrazone],antimicrobial activity,[6],Antimicrobial activity has been reported
